Data taken from patent US7662971B2, “Inhibitors of fatty acid amide hydrolase” (The Scripps Research Institute, priority 2002, dated 2010).

tested on: mice; assay: hot plate test (thermal pain); format: in vivo; details: 10 mg/kg, i.p., 60 minutes following injection, p<0.01
Method: (§1) FIG. 12 illustrates a bar graph showing the reduced thermal pain responses 60 minutes following the injection of OL-135 (10 mg/kg, i.p.). This test is the hot plate test and there is no effect with the vehicle and there is some delay after administration of the OL-135. [p<0.01; N=12 mice per group; results shown as means ±S.E.]
(§2) The mice received an i.p. injection of vehicle or SR 141716A (3 mg/kg); 10 minutes later all subjects were given OL-135 (10 mg/kg, i.p.) and then evaluated in the hot plate test one hour after the second injection. [p<0.001 for OL-135-treated mice that were pretreated with vehicle versus either their pre-injection baseline latencies or OL-135 treated mice that were pretreated with SR 141716A. Results are shown as means ±S. E. N=6 mice/group.]

Compound | thermal pain response, hot plate test
O=C(CCCCCCc1ccccc1)c1ncc(-c2ccccn2)o1 [OL-135] | some delay

same assay, conditions: SR 141716A 3 mg/kg i.p. 10 minutes before OL-135 10 mg/kg i.p., one hour after second injection

Compound | effect on OL-135 analgesia, hot plate test
Cc1c(C(=O)NN2CCCCC2)nn(-c2ccc(Cl)cc2Cl)c1-c1ccc(Cl)cc1 [SR 141716A, reference compound] | blocking the analgesic effects of OL-135

molecular target: T1, FAAH (Rattus norvegicus, UniProt P97612); assay: FAAH enzyme inhibition, breakdown of 14C-oleamide to oleic acid; format: biochemical; details: 5-(2-pyridyl)-substituted oxazole head group, FIG. 4
T1 construct: using a solubilized liver plasma membrane extract containing FAAH; from tissue; host or cells: liver plasma membrane extract (solubilized)
T1 sequence (P97612 1-579): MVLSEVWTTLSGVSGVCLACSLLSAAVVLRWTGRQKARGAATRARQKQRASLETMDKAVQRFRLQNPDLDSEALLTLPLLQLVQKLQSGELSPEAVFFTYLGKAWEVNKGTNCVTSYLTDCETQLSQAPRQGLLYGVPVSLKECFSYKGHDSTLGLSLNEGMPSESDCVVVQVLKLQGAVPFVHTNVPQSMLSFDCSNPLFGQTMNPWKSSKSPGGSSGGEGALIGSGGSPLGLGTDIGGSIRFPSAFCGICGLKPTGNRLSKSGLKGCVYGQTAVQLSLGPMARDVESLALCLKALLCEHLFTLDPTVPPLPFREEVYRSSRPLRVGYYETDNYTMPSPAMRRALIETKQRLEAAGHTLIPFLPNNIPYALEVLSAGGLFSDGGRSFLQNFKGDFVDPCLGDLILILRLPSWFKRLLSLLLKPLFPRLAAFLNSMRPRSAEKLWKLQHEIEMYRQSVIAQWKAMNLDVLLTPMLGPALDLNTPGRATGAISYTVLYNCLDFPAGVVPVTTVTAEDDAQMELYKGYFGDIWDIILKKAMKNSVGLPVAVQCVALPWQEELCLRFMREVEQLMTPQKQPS
Method: All enzyme assays were performed at 20-23° C. using a solubilized liver plasma membrane extract containing FAAH in a reaction buffer of 125 mM Tris, 1 mM EDTA, 0.2% glycerol, 0.02% Triton X-100, 0.4 mM HEPES, pH 9.0 buffer (M. P. Patricelli, et al., (1998) Bioorg. Med. Chem. Lett. 8, 613-618; and J. E. Patterson, et al., (1996) J. Am. Chem. Soc. 118, 5938-5945). The initial rates of hydrolysis were monitored by following the breakdown of ^14C-oleamide to oleic acid as previously described (B. F. Cravatt, et al., (1995) Science 268, 1506-1509; and M. P. Patricelli, et al., (1998) Bioorg. Med. Chem. Lett. 8, 613-618). The inhibition was reversible, non time-dependent and linear least squares fits were used for all reaction progress curves and R^2 values were consistently >0.97. IC50 values were determined from the inhibition observed at 3-5 different inhibitor concentrations (from three or more trials at each inhibitor concentration) using the formula IC50=[I]/[(K0/Ki)−1], where K0 is the control reaction rate without inhibitor and Ki is the rate with inhibitor at concentration [I] (K. Conde-Frieboes, et al., (1996) J. Am. Chem. Soc. 118, 5519-5525). Ki values were determined by the Dixon method (x-intercepts of weighted linear fits of [I] versus 1/rate plots at constant substrate concentration, which were converted to Ki values using the formula Ki=−xint/[1+[S]/Km]).

difference in Ki between compounds 185 and 200 | Compound
factor of two | CCCCCCCCCCCC(=O)c1ncc(-c2ccccn2)o1 [Compound 185, 1-(5-(Pyridin-2-yl)oxazol-2-yl)dodecan-1-one]
factor of two | O=C(CCCCCCc1ccccc1)c1ncc(-c2ccccn2)o1 [Compound 200, 1-Oxo-1-[5-(2-pyridyl)oxazol-2-yl]-7-phenylheptane]

tested on: mice; assay: tail withdrawal / tail immersion test (thermal pain); format: in vivo; details: 10 mg/kg, i.p., 60 minutes following injection, p<0.001
Method: as §1, with “FIG. 11” for “FIG. 12”, “the tail withdrawal” for “the hot plate”, “vehicle while” for “vehicle and”, “is marked” for “is some”, “OL-135. [p<0.001;” for “OL-135. [p<0.01;”
as §2, with “tail immersion” for “hot plate”, “(p<0.001” for “[p<0.001”, “141716A.)” for “141716A.”, “mice/group.” for “mice/group.]”

Compound | thermal pain response, tail withdrawal test
O=C(CCCCCCc1ccccc1)c1ncc(-c2ccccn2)o1 [OL-135] | marked delay

same assay, conditions: SR 141716A 3 mg/kg i.p. 10 minutes before OL-135 10 mg/kg i.p., one hour after second injection

Compound | effect on OL-135 analgesia, tail immersion test
Cc1c(C(=O)NN2CCCCC2)nn(-c2ccc(Cl)cc2Cl)c1-c1ccc(Cl)cc1 [SR 141716A, reference compound] | blocking the analgesic effects of OL-135

tested on: not given; assay: not given; details: not given

Compound | melting point [°C]
CCCCC(=O)c1ncc(-c2ccccn2)o1 [Compound 192, 1-(5-(pyridin-2-yl)oxazol-2-yl)pentan-1-one] | 36 to 37
CCC(=O)c1ncc(-c2ccccn2)o1 [Compound 194, 1-[5-(Pyridin-2-yl)oxazol-2-yl]propan-1-one] | 65 to 67
C#CCCCCCCCC(=O)c1ncc(-c2ccccn2)o1 [Compound 204, 1-Oxo-1-[5-(2-pyridyl)oxazol-2-yl]-9-decyne] | 64.5 to 65.5
O=C(CCCCCCCc1ccccc1)c1ncc(-c2ccccn2)o1 [Compound 201, 1-Oxo-1-[5-(2-pyridyl)oxazol-2-yl]-8-phenyloctane] | 72 to 73
CCCCCCCC(=O)c1ncc(-c2ccccn2)o1 [Compound 189, 1-(5-(Pyridin-2-yl)oxazol-2-yl)octan-1-one] | 56
CCCCCC(=O)c1ncc(-c2ccccn2)o1 [Compound 191, 1-(5-(Pyridin-2-yl)oxazol-2-yl)hexan-1-one] | 49 to 50.5
CCCCCCC(=O)c1ncc(-c2ccccn2)o1 [Compound 190, 1-(5-(Pyridin-2-yl)oxazol-2-yl)heptan-1-one] | 52
CCCC(=O)c1ncc(-c2ccccn2)o1 [Compound 193, 1-[5-(Pyridin-2-yl)oxazol-2-yl]butan-1-one] | 54 to 55
CCCCCCCCC(=O)c1ncc(-c2ccccn2)o1 [Compound 188, 1-(5-(Pyridin-2-yl)oxazol-2-yl)nonan-1-one] | 56 to 57
C=CCCCCCCCC(=O)c1ncc(-c2ccccn2)o1 [Compound 203, 1-Oxo-1-[5-(2-pyridyl)oxazol-2-yl]-9-decene] | 55 to 57
O=C(CCCCc1ccccc1)c1ncc(-c2ccccn2)o1 [Compound 198, 1-Oxo-1-[5-(2-pyridyl)oxazol-2-yl]-5-phenylpentane] | 49 to 51
O=C(CCCCCc1ccccc1)c1ncc(-c2ccccn2)o1 [Compound 199, 1-Oxo-1-[5-(2-pyridyl)oxazol-2-yl]-6-phenylhexane] | 43.5 to 45.5

Now from value to compound:

melting point [°C] | Compound
41 | CCCCCCCCC#CCCCCCCCC(=O)c1ncc(-c2ccccn2)o1 [Compound 205, 1-Oxo-1-[5-(2-pyridyl)oxazol-2-yl]-9-octadecyne]
79 to 80 | CCCCCCCCCCCCCC(=O)c1ncc(-c2ccccn2)o1 [Compound 184, 1-(5-(Pyridin-2-yl)oxazol-2-yl)tetradecan-1-one]
73 to 74 | CCCCCCCCCCCC(=O)c1ncc(-c2ccccn2)o1 [Compound 185, 1-(5-(Pyridin-2-yl)oxazol-2-yl)dodecan-1-one]
56 to 57 | CCCCCCCCCC(=O)c1ncc(-c2ccccn2)o1 [Compound 187, 1-(5-(Pyridin-2-yl)oxazol-2-yl)decan-1-one]
78 to 80 | CCCCCCCCCCCCCCCC(=O)c1ncc(-c2ccccn2)o1 [Compound 183, 1-(5-(Pyridin-2-yl)oxazol-2-yl)hexadecan-1-one]
86 to 87 | CCCCCCCCCCCCCCCCCC(=O)c1ncc(-c2ccccn2)o1 [Compound 182, 1-(5-(Pyridin-2-yl)oxazol-2-yl)octadecan-1-one]
